Assays:
H1299/PR-1 cells = assay: Colony survival assay, H1299/PR-1 pemetrexed-resistant subline; format: cell-based, human; conditions: PR-1 vs H1299 parental, colony survival
Procedure: (§1) For cells in suspension, colony survival was determined by crystal violet staining of colonies formed after 10-day exposure of 5×10^3 cells to pemetrexed in soft agar. For adherent cells, colony survival was determined by methylene blue staining of colonies formed after 10-day exposure of 100 cells to pemetrexed in 6-well culture dishes. Only colonies containing ≥50 cells were counted. Data points represent percent of colonies relative to untreated control averaged over 3 experiments.
H1299 cells were exposed to step-wise increasing concentrations of pemetrexed over a period of 4 months. UNG expression was monitored in the bulk population at 2, 8, 12 and 16 weeks prior to administration of the induction dosage and at 24 weeks in a population of bulk chronically exposed cells that had been without pemetrexed for 8 weeks. H1299 cells capable of growth in 50 nM pemetrexed selection pressure were subcloned by limiting dilution in 96 well plates. Independent sublines were designated H1299/PR-1 and H1299/PR-2.

H1975 66 shUNG cells = assay: Colony survival assay, H1975 66 shUNG cells; format: cell-based, human
Procedure: as §1
UNG directed shRNA and siRNA plasmids were purchased from Origene. Transfection was carried out according to manufacturer specifications. Stably transfected clones (shRNA) were selected with puromycin with subsequent expansion of a well-isolated colony of cells.

[1] = system: AP sites in DNA of UDG−/− cells; assay: AP site assay (ARP), UDG−/− cells; format: cell-based, human; conditions: pemetrexed 0-400 nM, 24 hrs
Procedure: (§2) The number of AP sites was measured using ARP (aldehyde reactive probe) reagent. The assay was performed as previously described. Briefly, cells (2×10^6) were collected after drug treatment and DNA was extracted. DNA (10 μg) was incubated with 15 μl of 1 mM ARP (Dojindo Laboratories, Kumamoto, Japan), and then precipitated and washed with ice-cold ethanol. The ARP-labeled DNA was then heat-denatured at 100° C. for 5 min, quickly chilled on ice and mixed with an equal volume of 2 M ammonium acetate. The DNA was then immobilized on a BA-S 85 nitrocellulose membrane (Schleicher and Schuell, Dassel, Germany) using a minifold II vacuum filter device (Schleicher and Schuell, Dassel, Germany). The membrane was incubated with 0.25% BSA-PBS containing streptavidin-conjugated horseradish peroxidase (BioGenex, SanRamon, Calif.) at room temperature for 40 min with gentle shaking. ARP-labeled AP sites were visualized by chemiluminescence (Amersham Corp, Piscataway, N.J.) followed by quantitative densitometry using NIH Image J software.

DLD1/UDG−/− cells = assay: Cell cycle analysis, UDG−/− cells; format: cell-based, human; conditions: pemetrexed 25 nM
Procedure: (§3) For cell cycle analysis, 10^6 cells (DLD1/UDG^+/+ and DLD1/UDG^−/−) were plated in 100-mm tissue culture dishes and exposed to pemetrexed (25 nM). After 6, 24 and 72 h of culture, cells were fixed with 80% methanol and washed with ice-cold 1% BSA/PBS. DNA was stained with 20 μg/mL propidium iodide (Sigma-Aldrich) and 2.5 μg/mL of DNase-free RNase A (Roche). The DNA fluorescence of propidium iodide-stained cells was measured with an Elite ESP flow cytometer/cell sorter (Coulter, Miami, Fla.).

DLD1/UDG+/+ cells = assay: Cell cycle analysis, UDG+/+ cells; format: cell-based, human; conditions: pemetrexed 25 nM
Procedure: as §3

A549 cells = assay: Clonogenic survival assay, A549 cells (Example 1); format: cell-based; conditions: Homo sapiens, read-out: IC50 values for pemetrexed
Procedure: Tumor cells (500-2000/dish) were plated and treated with pemetrexed (0-400 nM), 5-fluorouracil (0-20 μM), temozolomide (0-1500 μM), or cisplatin (0-40 μM). After 7 days, surviving colonies were stained with methylene blue for 30 min at room temperature and the colonies containing more than 50 cells were counted to generate survival curves.

H1975 wild type cells = assay: PCNA dissociation by bi-parametric flow cytometry, H1975 wild type cells; format: cell-based, human; conditions: treated samples
Procedure: Propidium iodine (PI) staining of methanol fixed cells was for cell cycle determinations. Where indicated, FITC labeled PCNA antibody (PCNA-FITC, Abcam) was added for PCNA detection. Uni-parameter (PI-only) and dual-parameter (PI+PCNA-FITC) analysis was performed on a Coulter flow cytometer (EPICS-XL-MCL). Cell cycle histograms (PI) and PCNA dot plots (PCNA-FITC) were de-convoluted from ≥20,000 events using FlowJo software.
Prolonged S-phase arrest is known to result in DNA DSB formation due to the collapse of stalled replication forks. We evaluated the stability of the DNA replication fork in pemetrexed treated lung cancer cells with native and reduced levels of UNG protein. Nucleotide incorporation experiments using CldU and IdU indicate decreased postpemetrexed treatment nucleotide incorporation (data not shown). […] Using bi-parametric flow cytometry we measured the dissociation of the replication fork processivity factor, PCNA at the single cell level in H1975 cells expressing UNG directed shRNA. Similar assays have been utilized to detect replication fork disassembly following etoposide and hydroxyurea exposure. PCNA dissociation was determined by the percentage of cells in S phase having low PCNA (red box, FIG. 11d). […] As a complimentary experiment, we examined the expression of chromatin-bound PCNA after pemetrexed treatment by western blot of chromatin cellular extracts.

[2] = system: AP sites in DNA of UDG+/+ cells; assay: AP site assay (ARP), UDG+/+ cells; format: cell-based, human; conditions: pemetrexed 0-400 nM, 24 hrs
Procedure: as §2

SMILES: Nc1nc2[nH]cc(CCc3ccc(C(=O)N[C@@H](CCC(=O)O)C(=O)O)cc3)c2c(=O)[nH]1 [pemetrexed]
- relative resistance to pemetrexed compared to parental cells (H1299/PR-1 cells): 25 fold
- sensitivity of shRNA targeted H1975 clones compared to parental cells (H1975 66 shUNG cells; H1975 shUNG clones vs parental): > 5 fold
- IC50 (H1975 66 shUNG cells; Homo sapiens, NCI-H1975, H1975 66 shUNG, colony survival, read-out: pemetrexed IC50): 131 nM
- AP sites in DNA [1]: lack of detectable AP sites
- cells arrested in S-phase (DLD1/UDG−/− cells; 6 hr): ~25%
- cells arrested in S-phase (DLD1/UDG−/− cells; 24 hr): 36%
- cells in S-phase (DLD1/UDG−/− cells; 72 hr): 35%
- cells undergone apoptosis (subG1) (DLD1/UDG−/− cells; 72 hr): ~22%
- cells transiently arrested in S-phase (DLD1/UDG+/+ cells; 24 hr (untreated 17%)): 21%
- cells in the subG1 compartment (DLD1/UDG+/+ cells; 72 hr): 6%
- IC50 (A549 cells): 1200 nM
- cells in S phase having low PCNA (H1975 wild type cells): less than 1%
- AP sites in DNA [2]: dose-dependent formation of AP sites

Reference: patent US10725042B2, “Methods of diagnosing and treating cancer” (Case Western Reserve University, priority 2012, dated 2020)
